“Also recorded” adds a separate entry of the source.
Assays:
mouse DRG neurons = experiment: Neurite outgrowth, Sholl analysis; type: cell-based; details: 100 nM, wild-type neurons
Description: Sholl analysis was performed using the Neuroanatomy plugin in ImageJ according to the authors’ recommendations ([77]). Only solitary cells were used for analysis. The area under the curve was calculated using GraphPad Prism. More details are available in SI Appendix. […]
gently layered onto 3 mL of 10% bovine serum albumin (BSA, BioPharm #71- 040-002) in HBSS in a 15 ml falcon tube. T his BSA gradient containing the cells was centrifuged at 900g for 5 min at room temperatur e.
The pellet containing the cells was resuspended in Br ainPhys media (STEMCell #05790) containing 2% […]
1% Gluta Max (Gibco # 350 5 0061). Hu man DRG ne uron s were plated a nd grown o n glass coverslips coate d with po ly-D-lysine (Sigma #P7405). C ultured D RG neurons were plated for 24 hours before being treated.
Methylglyoxal (Sigma- Aldrich #M0252) and F EM- 1689 were serially diluted in media.
Mouse samples - DRG cultures […]
anesthesia and decapitated. […]
section above with minor differences.
Mouse DRG neurons were grown in
SAS-0132 and DKR-1677 were […]
dissolved in 100% DMSO to a final concentr ation of 200mM and stored at - 20 °C. and DKR-1677 were serially diluted in media. […]
Cultured mouse DRG neur ons from wild- type and TMEM97KO animals were treated w ith either vehicle or FEM-1689 (100 nM). […] The area under the curve was calculated using Graph Pad […]

5HT3 = 5HT3 (Homo sapiens, UniProt P46098); experiment: PDSP competitive binding assay; details: 10 µM test article; read-out: Ki: primary assay inhibition of radioligand binding, 5HT3
5HT2B = 5HT2B (Homo sapiens, UniProt P41595); experiment: PDSP competitive binding assay; details: 10 µM test article; read-out: Ki: primary assay inhibition of radioligand binding, 5HT2B
Sequence of 5HT2B (P41595 whole entry): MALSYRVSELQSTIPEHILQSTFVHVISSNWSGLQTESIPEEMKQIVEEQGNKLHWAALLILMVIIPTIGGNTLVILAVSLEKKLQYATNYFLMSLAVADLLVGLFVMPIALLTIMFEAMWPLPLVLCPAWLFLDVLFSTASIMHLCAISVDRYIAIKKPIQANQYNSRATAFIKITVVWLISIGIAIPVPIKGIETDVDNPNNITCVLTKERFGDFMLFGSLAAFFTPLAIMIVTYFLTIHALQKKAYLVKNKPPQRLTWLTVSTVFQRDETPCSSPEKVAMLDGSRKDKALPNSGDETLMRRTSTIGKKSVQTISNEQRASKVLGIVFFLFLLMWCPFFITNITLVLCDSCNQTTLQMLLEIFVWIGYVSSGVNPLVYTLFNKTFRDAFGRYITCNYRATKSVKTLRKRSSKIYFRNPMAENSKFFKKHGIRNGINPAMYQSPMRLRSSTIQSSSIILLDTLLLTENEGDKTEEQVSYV

Sequence of 5HT3 (P46098 24-478): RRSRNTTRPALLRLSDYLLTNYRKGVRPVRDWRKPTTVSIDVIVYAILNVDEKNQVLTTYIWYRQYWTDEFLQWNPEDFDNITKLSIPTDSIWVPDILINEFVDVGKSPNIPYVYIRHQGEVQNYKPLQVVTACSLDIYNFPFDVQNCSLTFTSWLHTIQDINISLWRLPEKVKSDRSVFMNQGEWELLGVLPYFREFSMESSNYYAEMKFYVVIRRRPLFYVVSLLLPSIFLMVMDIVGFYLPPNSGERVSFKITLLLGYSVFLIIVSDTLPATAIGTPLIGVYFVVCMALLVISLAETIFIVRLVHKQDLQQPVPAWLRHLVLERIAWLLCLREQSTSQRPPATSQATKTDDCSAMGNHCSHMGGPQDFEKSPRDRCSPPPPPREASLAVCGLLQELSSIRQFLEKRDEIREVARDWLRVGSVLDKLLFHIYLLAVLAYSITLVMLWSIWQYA

## OCCCN1CC[C@@H]2C[C@H]1c1cc(-c3ccc(C(F)(F)F)cc3)ccc12 [FEM-1689]
Mouse DRG neurons
  neurite outgrowth (Sholl analysis): increase in the number and complexity of neurites in wild-type neurons; also recorded: promoted neurite outgrowth in wild-type neurons
5HT3
  inhibition at 10 µM: < 50%
5HT2B
  inhibition at 10 µM: < 50%

— publication PMC10756276, “Highly specific σ2R/TMEM97 ligand FEM-1689 alleviates neuropathic pain and inhibits the integrated stress response” (Proceedings of the National Academy of Sciences of the …, 2023)
